Results from US7820624B2, “Peptide ligands” (ICH Productions Limited, priority 2003, dated 2010).

What was measured:
[1] = system: human monocyte-derived immature dendritic cells; test: Titration of phage clone binding to human dendritic cells; conditions: 2×10^11 phage on 5×10^4 cells, 1 hour on ice
Protocol: Phage were recovered and titred from each round of selection as follows. 2×10^11 Blocked phage were added to 5×10^4 blocked monocyte-derived immature dendritic cells for 1 hour on ice before washing cells three times with 0.05% Tween20-PBS, eluting phage with TBS pH5.5, and lysing cells to harvest the phage remaining bound. The numbers of phage harvested by cell lysis were calculated as plaque forming units (pfu). […] Sequencing of the bound phage shown in FIG. 1 identified the peptides as APSNSTA [SEQ. ID. NO.:15], QLLTGAS [SEQ. ID. NO.:30], TARDYRL [SEQ. ID. NO.:31], FQSQYQK [SEQ. ID. NO.:26], PLMPSLS [SEQ. ID. NO.:24], FPRAPHH [SEQ. ID. NO.:32], MASISMK [SEQ. ID. NO.:27], DWWHTSA [SEQ. ID. NO.:28], SHVKLNS [SEQ. ID. NO.:29], and SPALKTV [SEQ. ID. NO.:16].
The dendritic cells were spun down at 2000 rpm, for 5 min at 4° C., and resuspended in the phage solution, allowing the phage to bind for 1 hour on ice with occasional mixing. The cells were then washed in PBS-Tween 20 (0.05%) three times before eluting phage with 166 μl TBS pH5.5. for 10 min on ice. The eluate was neutralised with […] Tris-HCl pH 8, the cells were spun down, and the supernatant removed to be stored as eluate. The cell pellet was resuspended in 200 μl of cell lysis buffer (30 mM Tris-HCl, 1 mM EDTA pH 8.0) for 1 hour on ice, with shaking. The cell debris was removed by spinning at 5000 rpm for 5 min and the supernatant recovered. The phage in the eluate and the cell lysate were titred by measuring plaque forming units (pfu) in E. coli ER2738 as described in the NEB C7C technical bulletin.
The titration of phage clone binding was carried out using human and mouse dendritic cells, with binding to plastic as a control. The human cells were obtained from donors as stated below.

[2] = system: human peripheral blood monocytes; test: LID transfection of monocytes, EGFP by FACS and cell death; assay type: cell-based; conditions: for Percentages of cells transfected (ranking): FIG. 7a
Protocol: Lipopolyplex (LID) transfection complexes comprising lipid (L), peptide (in the form of a peptide derivative as described above) (I) and DNA (D) were prepared. The lipid component was Lipofectin or Lipofectamine 2000 (Invitrogen Ltd, Paisley, UK), the peptide component was a synthesized peptide A to F, 6 or 6J derivative, as described in Table 7 above, and the DNA was the plasmid pEGFP-N1 (Clontech, BD Biosciences, Palo Alto, Calif.)
component (Lipofectin or Lipofectamine 2000) was maintained at a constant proportion, by weight, relative to DNA of 0.75:1. Prior to making transfection complexes, in method A the lipid component was diluted to a concentration of 15 μg per ml, the peptide was prepared at 0.1 mg/ml and the DNA (plasmid pEGFP-N1, BD Biosciences, Cowley, UK, prepared using EndoFree plasmid kit, Qiagen Ltd, Crawley, UK) was at 10 μg per ml. All dilutions were performed with OptiMEM reduced serum tissue culture medium (Life Technologies Ltd, Paisley, UK). In method B prior to making transfection complexes the lipid component was diluted to a concentration of 30 μg per ml, the peptide was prepared at 0.1 mg/ml and the DNA (plasmid pEGFP-N1, BD Biosciences, Cowley, UK, prepared using EndoFree plasmid kit, Qiagen Ltd, Crawley, UK) was at […]. All dilutions were performed in serum-free RPMI.
Transfection complexes were made by mixing the components in the order 1) lipid (50 μl) then 2) peptide (70 μl) and finally 3) DNA (50 μl), then diluting with OptiMEM or serum free RPMI, as appropriate, to a concentration relative to the DNA component of 2 μg DNA per […] (OptiMEM) or 500 μl (RPMI).
For transfection of monocytes, peripheral blood monocytes were prepared using Lymphoprep centrifugation and CD14 bead selection as described in the method for preparation of monocyte derived dendritic cells in Example 1(v) above. These cells were then transfected as described as described for dendritic cells except that transfection of the monocytes (and also of day 3 or day 4 immature dendritic cells) was carried out in solution.

HMEC-1 cells = test: LID transfection, luciferase reporter assay, HMEC-1; assay type: cell-based, human; conditions: LID with lipofectin
Protocol: (§1) Transfection complexes comprising lipid, peptide and DNA were prepared. The lipid component was lipofectin (Invitrogen Ltd, Paisley, UK), the peptide component was a peptide A to F, 6 or 6J derivative, as described above, and the DNA was the plasmid pCILuc (Promega UK Ltd, Southampton). In the transfection complex, peptide to DNA charge ratios (+/−) were used at 3:1, 5:1 and 7:1. The lipid component was maintained at a constant proportion, by weight, relative to DNA of 0.75:1. Prior to making transfection complexes the lipid component was diluted to a concentration of 15 μg or 30 μg per ml, the peptide was prepared at 0.1 mg/ml and the DNA was at 40 μg per ml. All dilutions were performed with OptiMEM reduced serum tissue culture medium (Life Technologies). Transfection complexes were made by mixing of components in the order 1) lipid then 2) peptide and finally 3) DNA, then diluted with OptiMEM to a concentration relative to the DNA component of 0.25 μg DNA per […]
(§2) For transfection of these types of cell i.e. HMEC, HAEo-, N2a and HepG2, 1×10^4 cells were seeded overnight in 96 well plate. 200 μl of the suspension of the transfection complex prepared according to (b) above was added to each well. The suspension was applied to cells within 5 minutes of preparation. […]

HAEo- cells = test: LID transfection, luciferase reporter assay, HAEo-; assay type: cell-based, human; conditions: LID with lipofectin
Protocol: as §1, §2

N2a (Neuro2A) cells = test: LID transfection, luciferase reporter assay, N2a; assay type: cell-based, mouse; conditions: LID with lipofectin
Protocol: as §1, §2

“SHVKLNS (Synthetic peptide binding to dendritic cells)” was tested, and the “Phage harvested by cell lysis (pfu), human donor S” value [1] was 7280 pfu ×10^3, the “Phage harvested by cell lysis (pfu), human donor one” value [1] was 2620 pfu ×10^3 and the “Phage harvested by cell lysis (pfu), human donor two” value [1] was 1160 pfu ×10^3. The “Percentages of cells transfected (ranking)” value [2] was “highest percentages of cells transfected”, the “Percent positive for EGFP” value ([2]; combined with Lipofectin) was 6% and the “Transfection efficiency (luciferase activity per mg protein) relative to peptide 6” value (HMEC-1 cells) was “approximately equal to that seen with peptide 6”. For the same substance, the “Transfection efficiency (luciferase activity per mg protein) relative to peptide 6” value (HAEo- cells) was “approximately double that seen with peptide 6” and the “Transfection efficiency (luciferase activity per mg protein) relative to peptide 6” value (N2a (Neuro2A) cells) was “equal to those seen with peptide 6”.
“APSNSTA (Synthetic peptide binding to dendritic cells)” was tested, and the “Phage harvested by cell lysis (pfu), human donor S” value [1] was 6480 pfu ×10^3, the “Phage harvested by cell lysis (pfu), human donor one” value [1] was 1920 pfu ×10^3 and the “Phage harvested by cell lysis (pfu), human donor two” value [1] was 460 pfu ×10^3. For the same substance, the “Percentages of cells transfected (ranking)” value [2] was “highest percentages of cells transfected”, the “Transfection efficiency (luciferase activity per mg protein) relative to peptide 6” value (HMEC-1 cells) was “one and a half times that of peptide 6” and the “Transfection efficiency (luciferase activity per mg protein) relative to peptide 6” value (HAEo- cells) was “one and a half times that using peptide 6”. For the same substance, the “Transfection efficiency (luciferase activity per mg protein) relative to peptide 6” value (N2a (Neuro2A) cells) was “less than half that value”.
